Experiments:
[1] = test system: mouse macrophage RAW264.7 cells; assay: Cell proliferation of RAW264.7 cells (cell count); type: cell-based; conditions: DHMBA 1, 10, 100 or 1000 μM, 1 to 4 days
Method: FIG. 2 is an explanatory diagram describing that the marine factor 3,5-dihydroxy-4-methoxybenzyl alcohol (DHMBA) suppresses the proliferation of mouse macrophage RAW264.7 cells. RAW264.7 cells (1×10^5 cells/ml per well in a 24-well plate) were cultured in a DMEM culture medium containing 10% FBS (fetal bovine serum), 1% P/S (penicillin/streptomycin), and 1% fungizone in a control group (1% ethanol; 0 μM DHMBA as final concentration) and in a DHMBA-treated group (0.1, 1, 10, 100, or 1000 μM) for 1 day (panel A), 2 days (B), 3 days (C), or 4 days (D). After the culture, the number of cells attached to the dish was counted. Data are presented as the mean±SD (standard deviation) from a total of 8 wells in 2 plates using different cell preparations. *: Significant difference (p<0.001) between the control group (gray bars) and the DHMBA-treated group. Statistical analysis was performed using 1-way ANOVA with Tukey-Kramer post-test.
After the culture, to detach the cells from each well, a Ca^2+/Mg^2+ free PBS solution with 0.05% trypsin/EDTA was added to the culture dish (0.1 ml per well) and incubated at 37° C. for 2 min. […]
The number of viable cells was counted under a microscope (Olympus MTV-3) using a hemocytometer (Sigma-Aldrich) and a cell counter (H-102P, Line Seiki Co., Ltd., Tokyo, Japan). […]

[2] = test system: mouse macrophage RAW264.7 cells; assay: Cell death of subconfluent RAW264.7 cells (cell count); type: cell-based; conditions: for death in RAW264.7 cells: DHMBA 1, 10, 100 or 1000 μM, subconfluent cells
Method: FIG. 4 is an explanatory diagram describing that the marine factor 3,5-dihydroxy-4-methoxy benzyl alcohol (DHMBA) stimulates cell death in mouse macrophage RAW264.7 cells. RAW264.7 cells (1×10^5 cells/ml/well in a 24-well plate) were cultured in DMEM containing 10% FBS, 1% P/S, and 1% fungizone for 3 days until they reached subconfluence. The cells were cultured for another 24 hours (FIG. 4A) or 48 hours (FIG. 4B) in the control group (1% ethanol; 0 μM DHMBA as final concentration) and in the DHMBA-treated group (0.1, 1, 10, 100, or 1000 μM). In FIG. 4C, subconfluent RAW264.7 cells were cultured for another 48 hours with a caspase-3 inhibitor (10 μM) in the control group (1% ethanol; 0 μM DHMBA as final concentration) and the DHMBA-treated group (1 or 10 μM). After the culture, the number of cells attached to the dish was counted. Data are presented as the mean±SD from a total of 8 wells in 2 plates using different cell preparations. In FIG. 4D, to measure the expression level of caspase-3 or cleaved caspase-3, […] (1×10^6 cells/10 ml medium in a 100 mm dish) were cultured for 3 days in a DMEM culture medium in the control group (1% ethanol; 0 μM DHMBA as final concentration) and the DHMBA-treated group (10 μM). After the culture, cell lysates were obtained for Western blotting assay. In FIG. 4E, band intensities are shown as fold increase over the control. Data are presented as the mean±SD of values obtained from 4 dishes using different cell preparations. *: Significant difference (p<0.001) between the control group and the DHMBA-treated group. Statistical analysis was performed using 1-way ANOVA with Tukey-Kramer post-test.
RAW264.7 cells (1×10^5/ml/well in a 24-well plate) were cultured for 3 days in a DMEM culture medium containing 10% FBS, 1% P/S, and 1% fungizone using a 24-well plate. […]
The number of viable cells was counted under a microscope (Olympus MTV-3) using a hemocytometer (Sigma-Aldrich) and a cell counter (H-102P, Line Seiki Co., Ltd., Tokyo, Japan).

In the case of COc1c(O)cc(CO)cc1O [DHMBA, 3,5-dihydroxy-4-methoxybenzyl alcohol], the “proliferation of RAW264.7 cells (number of cells attached to the dish)” value [1] is reported as “inhibited”, the “death in RAW264.7 cells” value ([2]; 24 hours) is reported as “promoted” and the “death in RAW264.7 cells” value ([2]; 48 hours) is reported as “promoted”. The “stimulatory effect on death of RAW264.7 cells in presence of caspase-3 inhibitor” value ([2]; DHMBA 1 or 10 μM, caspase-3 inhibitor 10 μM, 48 hours) was “blocked”.

Reference: patent publication US20260041649A1, “ANTI-INFLAMMATORY AGENT” (WATANABE OYSTER LABORATORY, CO., LTD., priority 2023, published 2026)
